The source of these data is ChEMBL document CHEMBL1122447, “2-Acetylpyridine thiosemicarbazones. 5. 1-[1-(2-Pyridyl)ethyl]-3-thiosemicarbazides as potential antimalarial agents” (1983).

Assay [1] relates to Plasmodium berghei. The assay can be described thus: Increased mean survival time in drug-sensitive Plasmodium berghei infected mice (Mus musculus) at 640 mg/kg dose. The class given is functional.
Assay [2] deals with Plasmodium berghei. Description: Increased mean survival time in drug-sensitive Plasmodium berghei infected mice (Mus musculus) at 40 mg/kg dose. It counts as functional.
For assay [3], the system named is Plasmodium berghei. Description: Increased mean survival time in drug-sensitive Plasmodium berghei infected mice (Mus musculus) at 20 mg/kg dose. The class given is functional.
Assay [4] deals with Plasmodium berghei. Description: Increased mean survival time in drug-sensitive Plasmodium berghei infected mice (Mus musculus) at 320 mg/kg; toxic in 4 of 5. The class given is functional, organism-based. More on the design: dose 320 mg/kg.
The test system of assay [5] is Plasmodium berghei. Description: Increased mean survival time in drug-sensitive Plasmodium berghei infected mice (Mus musculus) at 160 mg/kg; toxic in 1 of 5. It counts as functional, organism-based. More on the design: dose 160 mg/kg.
Assay [6] has as its system Plasmodium berghei. The assay can be described thus: Increased mean survival time in drug-sensitive Plasmodium berghei in mice (Mus musculus) at 80 mg/kg dose. It counts as functional.
The subject of assay [7] is Plasmodium berghei. The assay can be described thus: Antimalarial activity against Plasmodium berghei infected mice (Mus musculus) at 320 mg/kg; toxic in 5 of 5. It counts as functional, organism-based. The arrangement: dose 320 mg/kg.
Assay [8] concerns Plasmodium berghei. Description: Antimalarial activity against Plasmodium berghei infected mice (Mus musculus) at 160 mg/kg; toxic in 3 of 5. The class given is functional, organism-based. More on the design: dose 160 mg/kg.
For assay [9], the system named is Plasmodium berghei. The assay can be described thus: Antimalarial activity against Plasmodium berghei in mice (Mus musculus) at 40 mg/kg; toxic in 3 of 5. It counts as functional, organism-based. More on the design: dose 40 mg/kg.
Assay [10] concerns Plasmodium berghei. Description: Antimalarial activity against Plasmodium berghei infected mice (Mus musculus) at 640 mg/kg; toxic in 5 of 5. It counts as functional, organism-based. The arrangement: dose 640 mg/kg.
In assay [11] the test system is Plasmodium berghei. The assay can be described thus: Increased mean survival time in drug-sensitive Plasmodium berghei infected mice (Mus musculus) at 40 mg/kg; active. The class given is functional.
The subject of assay [12] is Plasmodium berghei. Description: Increased MST in drug-sensitive Plasmodium berghei infected mice (Mus musculus) at 10 mg/kg; […]. More on the design: dose 10 mg/kg. It counts as functional, organism-based.
The subject of assay [13] is Plasmodium berghei. The assay can be described thus: Increased mean survival time in drug-sensitive Plasmodium berghei infected mice (Mus musculus) at 160 mg/kg; cured 1 of 5. It counts as functional, organism-based. The arrangement: dose 160 mg/kg.
The subject of assay [14] is Plasmodium berghei. Description: Antimalarial activity against Plasmodium berghei infected mice (Mus musculus) at 20 mg/kg; toxic in 1 of 5. The class given is functional, organism-based. More on the design: dose 20 mg/kg.
Assay [15] concerns Plasmodium berghei. Description: Antimalarial activity against Plasmodium berghei infected mice (Mus musculus) at 40 mg/kg; toxic in 5 of 5. It counts as functional, organism-based. More on the design: dose 40 mg/kg.
Assay [16] concerns Plasmodium berghei. Description: Increased mean survival time in drug-sensitive Plasmodium berghei infected mice (Mus musculus) at 5 mg/kg; cured 2 of 5. It counts as functional.
Assay [17] has as its system Plasmodium berghei. Description: Antimalarial activity against Plasmodium berghei infected mice (Mus musculus) at 160 mg/kg; cured 1 of 5. The class given is functional, organism-based. The arrangement: dose 160 mg/kg.
Assay [18] relates to Plasmodium berghei. Description: Antimalarial activity against Plasmodium berghei infected mice (Mus musculus) at 40 mg/kg; cured 1 of 5. The class given is functional, organism-based. More on the design: dose 40 mg/kg.
Assay [19] has as its system Plasmodium berghei. The assay can be described thus: Increased mean survival time in drug-sensitive Plasmodium berghei infected mice (Mus musculus) at 320 mg/kg; cured 2 of 5. The class given is functional, organism-based. More on the design: dose 320 mg/kg.
Assay [20] deals with Plasmodium berghei. Description: Increase in mean survival time in drug-sensitive Plasmodium berghei infected mice (Mus musculus) at 160 mg/kg dose. It counts as functional.
Assay [21] relates to Plasmodium berghei. The assay can be described thus: Increased mean survival time in drug-sensitive Plasmodium berghei infected mice (Mus musculus) at 640 mg/kg; cured 2 of 5. It counts as functional, organism-based. More on the design: dose 640 mg/kg.
Assay [22] concerns Plasmodium berghei. The assay can be described thus: Increased mean survival time in drug-sensitive Plasmodium berghei infected mice (Mus musculus) at 640 mg/kg; toxic in 5 of 5. It counts as functional, organism-based. The arrangement: dose 640 mg/kg.
The subject of assay [23] is Plasmodium berghei. Description: Increased mean survival time in drug-sensitive Plasmodium berghei infected mice (Mus musculus) at 160 mg/kg; toxic in 5 of 5. The class given is functional, organism-based. More on the design: dose 160 mg/kg.
The subject of assay [24] is Plasmodium berghei. The assay can be described thus: Increased mean survival time in drug-sensitive Plasmodium berghei infected mice (Mus musculus) at 160 mg/kg; cured 2 of 5. It counts as functional, organism-based. The arrangement: dose 160 mg/kg.
Assay [25] has as its system Plasmodium berghei. The assay can be described thus: Increased mean survival time in drug-sensitive Plasmodium berghei infected mice (Mus musculus) at 320 mg/kg; cured 4 of 5.
Assay [26] has as its system Plasmodium berghei. Description: Increased mean survival time in drug-sensitive Plasmodium berghei infected mice (Mus musculus) at 160 mg/kg; cured 3 of 5. The class given is functional, organism-based. The arrangement: dose 160 mg/kg.
The test system of assay [27] is Plasmodium berghei. The assay can be described thus: Increased mean survival time in drug-sensitive Plasmodium berghei infected mice (Mus musculus) at 80 mg/kg; cures 4 of 5. It counts as functional, organism-based. The arrangement: dose 80 mg/kg.
In assay [28] the test system is Plasmodium berghei. The assay can be described thus: Increased mean survival time in drug-sensitive Plasmodium berghei infected mice (Mus musculus) at 80 mg/kg; active. The class given is functional.
The subject of assay [29] is Plasmodium berghei. Description: Antimalarial activity against Plasmodium berghei infected mice (Mus musculus) at 160 mg/kg; toxic in 1 of 5. More on the design: dose 160 mg/kg. The class given is functional, organism-based.
Assay [30] concerns Plasmodium berghei. Description: Antimalarial activity against Plasmodium berghei infected mice (Mus musculus) at 80 mg/kg; toxic in 1 of 5. More on the design: dose 80 mg/kg. It counts as functional, organism-based.
Assay [31] relates to Plasmodium berghei. Description: Antimalarial activity against Plasmodium berghei infected mice (Mus musculus) at 320 mg/kg; toxic in 3 of 5. It counts as functional, organism-based. More on the design: dose 320 mg/kg.
Assay [32] relates to Plasmodium berghei. Description: Antimalarial activity against Plasmodium berghei infected mice (Mus musculus) at 320 mg/kg; toxic in 2 of 5. It counts as functional, organism-based. More on the design: dose 320 mg/kg.

Structures are written as SMILES.

`CC(N/N=C(\[SeH])N1CC2CCC(CC2)C1)c1ccccn1` (stereo not given): the Survival time in assay [1] is -0.3 days; in assay [2] it was 0.5 days; in assay [3] it was -0.3 days; in assay [4] it was “Cured 4 of 5 mice; toxic in 1 of 5 mice”; in assay [5], “Cured 2 of 5 mice”; in assay [6], 5.5 days.
Regarding `CCOC(=O)N1CCN(/C(S)=N/NC(C)c2ccccn2)CC1` (stereo not given), the Survival time entry is “Toxic in 5 of 5 mice” in assay [7]; “Toxic in 5 of 5 mice” in assay [8]; “Toxic in 3 of 5 mice” in [9]; 5.9 days in [3]; “Toxic in 5 of 5 mice” in [10]; 7.2 days in assay [11].
As for `CC(N/N=C(\S)N1CC2CCC(CC2)C1)c1ccccn1` (stereo not given), the Survival time entry in [12] is “Cured 2 of 5 mice”; in assay [8], “Toxic in 3 of 5 mice”; in assay [10], “Toxic in 5 of 5 mice”; in assay [13] it was “Cured 1 of 5 mice”; in assay [14], “Cured 4 of 5 mice; toxic in 1 of 5 mice”; in [15] it was “Toxic in 5 of 5 mice”. In [16], this compound displayed a Survival time of 7.9 days.
For `CC1CCN(/C(S)=N/NC(C)c2ccccn2)CC1` (stereo not given), the Survival time entry in assay [17] was “Cured 1 of 5 mice”; in assay [8], “Toxic in 3 of 5 mice”; in assay [10], “Toxic in 5 of 5 mice”; in assay [18] it was “Cured 1 of 5 mice”.
As to `C/C(=N\N=C(/[SeH])N1CCCCCC1)c1ccccn1`, the Survival time in [2] was 1.7 days; in assay [19], “Cured 2 of 5 mice”; in assay [20], 7.3 days; in assay [6], 4.6 days; in assay [21], “Cured 2 of 5 mice”.
Take `C/C(=N\NC(=S)N1CCCC1)c1ccccn1`: the Survival time is 8.9 days in assay [2], “Toxic in 5 of 5 mice” in assay [22] and “Toxic in 5 of 5 mice” in assay [23].
Consider `C/C(=N\N=C(/S)N(C)C1CCCCC1)c1ccccn1`, for which the Survival time was 12.1 days in assay [1]; 3.7 days in assay [2]; “Cured 2 of 5 mice” in [24]; “Cured 4 of 5 mice” in [25]; 9.6 days in [6].
Consider `C/C(=N\NC(=S)N1CCCCCC1)c1ccccn1`, for which the Survival time in [2] is 6.2 days; in [19], “Cured 2 of 5 mice; toxic in 2 of 5 mice”; in assay [26] it was “Cured 3 of 5 mice; toxic in 1 of 5 mice”; in assay [27] it was “Cured 4 of 5 mice”; in assay [21], “Cured 2 of 5 mice; toxic in 3 of 5 mice”.
For the compound `CC(N/N=C(\S)N(C)C1CCCCC1)c1ccccn1` (stereo not given), the Survival time in assay [28] is 7.1 days; in assay [2] it was 3.7 days; in assay [3], 2.9 days; in assay [29], “Toxic in 1 of 5 mice”; in [14] it was “Toxic in 1 of 5 mice”; in assay [30] it was “Toxic in 1 of 5 mice”. Also, the Survival time entry was “Cured 3 of 5 mice” in assay [26], “Toxic in 3 of 5 mice” in [31] and “Cured 2 of 5 mice” in assay [32].
Consider `CC(N/N=C(\S)N1CCCC1)c1ccccn1` (stereo not given), for which the Survival time entry was “Cured 1 of 5 mice” in assay [17]; 5.2 days in [2]; “Toxic in 3 of 5 mice” in assay [8]; 1.3 days in [3]; “Toxic in 5 of 5 mice” in [10].
